Experimental findings from US12685733B2, “Indole molecules and use thereof in the inhibition of DNA polymerases” (BioVentures, LLC, priority 2019, dated 2026) are described below.

pIC50: −log10 of the molar value.

In general, pIC50 refers to the negative decadic logarithm of the IC50, by convention in mol/L.

The assay has as its target T1, hpol κ (Homo sapiens, UniProt Q9UBT6).
T1 sequence (Q9UBT6 19-526): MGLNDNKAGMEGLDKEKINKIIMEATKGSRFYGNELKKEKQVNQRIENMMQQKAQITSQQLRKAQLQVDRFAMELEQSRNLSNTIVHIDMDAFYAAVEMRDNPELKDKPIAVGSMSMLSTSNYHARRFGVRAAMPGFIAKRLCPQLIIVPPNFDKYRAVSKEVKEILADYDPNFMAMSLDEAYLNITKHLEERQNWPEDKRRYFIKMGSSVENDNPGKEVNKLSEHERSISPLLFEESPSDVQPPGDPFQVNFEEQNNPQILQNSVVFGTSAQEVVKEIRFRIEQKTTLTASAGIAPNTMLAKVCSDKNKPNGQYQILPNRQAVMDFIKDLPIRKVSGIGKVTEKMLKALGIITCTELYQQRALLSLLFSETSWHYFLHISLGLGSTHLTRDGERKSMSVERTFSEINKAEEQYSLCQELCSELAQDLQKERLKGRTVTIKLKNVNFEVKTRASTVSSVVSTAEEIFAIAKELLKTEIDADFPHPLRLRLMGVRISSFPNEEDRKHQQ
In words: Fluorescence-based (TAMRA/BHQ strand displacement) DNA polymerase activity assay. Conditions: for activity at 40 µM: read-out: % Activity Mean (hpol κ activity).

In the case of `Cc1c(/C=N/NC(=N)N)c2ccccc2n1C(=O)c1cccc2ccccc12` [IAG-1], the pIC50 is 4.07 and the activity at 40 µM was found to be 105%.
Taken in the same sequence, the figures for `COc1ccc2c(c1)c(/C=N/NC(=N)N)cn2C(=O)c1cccc2ccccc12` [IAG-2] were 4.16 and 104%.
The like results for `N=C(N)N/N=C/c1cn(Cc2ccc3ccccc3c2)c2ccccc12` [IAG-4] were, in that order, 4.32 and 95%.
Taken in the same sequence, the figures for `COc1ccc2c(c1)c(/C=N/NC(=N)N)cn2Cc1ccc2ccccc2c1` [IAG-5] were 4.36 and 94%.
With `N=C(N)N/N=C/c1cn(Cc2cccc3ccccc23)c2ccc(Cl)cc12` [IAG-7], the pIC50 was 4.62 and the activity at 40 µM turned out to be 64%.
Taken in the same sequence, the figures for `N=C(N)N/N=C/c1cn(Cc2cccc3ccccc23)c2ccc(Br)cc12` [IAG-8] were 4.62 to 5.14 and 57%.
Taken in the same sequence, the figures for `N=C(N)N/N=C/c1cn(C(=O)c2ccc3ccccc3c2)c2ccc(Cl)cc12` [IAG-9] were 4.73 and 30%.
In the case of `O=C1NC(=S)NC(=O)C1=Cc1cn(Cc2ccc3ccccc3c2)c2ccccc12` [IBA-1], the activity at 40 µM is 116%.
On to `COc1ccc2c(c1)c(C=C1C(=O)N(C)C(=O)N(C)C1=O)c(C)n2Cc1cccc2ccccc12` [IBA-2], for which the activity at 40 µM turned out to be 114%.
Same read-out and setting: under `Cc1c(C=C2C(=O)N(C)C(=O)N(C)C2=O)c2cc(Cl)ccc2n1Cc1cccc2ccccc12` [IBA-3] stands 111%; under `COc1ccc(Cn2cc(C=C3C(=O)NC(=O)NC3=O)c3cccnc32)cc1` [IBA-4], 110%.
On the same count and under the same terms, under `O=C1NC(=S)NC(=O)C1=Cc1cn(Cc2cccc3ccccc23)c2ncc(Cl)cc12` [IBA-5] stands 109%; under `O=C1NC(=S)NC(=O)C1=Cc1cn(Cc2cccc3ccccc23)c2ccc(Cl)cc12` [IBA-6], 108%.
Still for that read-out and setting: under `Cc1c(C=C2C(=O)NC(=O)NC2=O)c2ccccc2n1C(=O)c1cccc2ccccc12` [IBA-7] stands 107%; under `O=C1NC(=O)C(=Cc2cn(Cc3cccc4ccccc34)c3ncc(Cl)cc23)C(=O)N1` [IBA-8], 103%; under `O=C1NC(=O)C(=Cc2cn(Cc3cccc(C(F)(F)F)c3)c3ncccc23)C(=O)N1` [IBA-9], 103%.
With `N#Cc1ccc(Cn2cc(C=C3C(=O)NC(=O)NC3=O)c3ccccc32)cc1` [IBA-10], the activity at 40 µM stood at 102%.
For `Cc1c(C=C2C(=O)NC(=S)NC2=O)c2cc(Cl)ccc2n1Cc1cccc2ccccc12` [IBA-11], the activity at 40 µM came to 99.1%.
As to `Cc1c(C=C2C(=O)NC(=O)NC2=O)c2cc(Cl)ccc2n1Cc1cccc2ccccc12` [IBA-12], the activity at 40 µM was 96.6%.
Same read-out and setting: for `O=C1NC(=S)NC(=O)C1=Cc1cn(Cc2cccc(C(F)(F)F)c2)c2ncccc12` [IBA-13] the value was 96.6%.
With `Cc1c(C=C2C(=O)NC(=O)NC2=O)c2ccccc2n1C(=O)c1ccc2ccccc2c1` [IBA-14], the activity at 40 µM is 95.7%.
Take `COc1ccc(Cn2cc(C=C3C(=O)NC(=S)NC3=O)c3cccnc32)cc1` [IBA-15]: the activity at 40 µM was found to be 95.1%.
Turning to `N#Cc1ccc(Cn2cc(C=C3C(=O)NC(=S)NC3=O)c3cccnc32)cc1` [IBA-16], the activity at 40 µM was 94.5%.
On the same count and under the same terms, under `COc1ccc2c(c1)c(C=C1C(=O)NC(=S)NC1=O)cn2C(=O)c1cccc2ccccc12` [IBA-17] stands 93.8%; under `Cc1c(C=C2C(=O)NC(=S)NC2=O)c2ccccc2n1C(=O)c1ccc2ccccc2c1` [IBA-18], 93.5%.
On the same count and under the same terms, for `Cc1c(C=C2C(=O)NC(=O)NC2=O)c2ccccc2n1Cc1ccc(Br)cc1` [IBA-19] the value was 93.3%.
On the same count and under the same terms, for `COc1ccc2c(c1)c(C=C1C(=O)NC(=S)NC1=O)cn2C(=O)c1ccc2ccccc2c1` [IBA-20] the value was 92.9%; for `O=C1NC(=O)C(=Cc2cn(Cc3ccc4ccccc4c3)c3ncc(Cl)cc23)C(=O)N1` [IBA-21], 92.2%.
